Data set [1] relates to Wistar rats. The data set is described as follows: Novel object recognition. Type of data set: in vivo, rat. On the procedure: Male adult Wistar rats (Harlan, UK; approximately 11 weeks of age) were handled for two days prior to the experiment. […] Donepezil (0.1 mg/kg) and galanthamine (3 mg/kg) were administered via intraperitoneal injection (in saline) 60 min prior to training. Following a 10-min habituation period, each rat was placed into the test arena comprising an open-field arena in the presence of two identical plastic shapes and allowed to explore for 5 min. The rat was then returned to its home cage. After 24 hours, the rat was returned to the test arena in the presence of one familiar object, and one novel object. The time exploring each object was recorded using image analysis software (Ethovision XT, Noldus, UK).

In a further data set the target is T1, human M5-receptor (Homo sapiens, UniProt P08912).
T1 construct: expressed in transfected cells; host or cells: not described
T1 sequence (P08912 whole entry): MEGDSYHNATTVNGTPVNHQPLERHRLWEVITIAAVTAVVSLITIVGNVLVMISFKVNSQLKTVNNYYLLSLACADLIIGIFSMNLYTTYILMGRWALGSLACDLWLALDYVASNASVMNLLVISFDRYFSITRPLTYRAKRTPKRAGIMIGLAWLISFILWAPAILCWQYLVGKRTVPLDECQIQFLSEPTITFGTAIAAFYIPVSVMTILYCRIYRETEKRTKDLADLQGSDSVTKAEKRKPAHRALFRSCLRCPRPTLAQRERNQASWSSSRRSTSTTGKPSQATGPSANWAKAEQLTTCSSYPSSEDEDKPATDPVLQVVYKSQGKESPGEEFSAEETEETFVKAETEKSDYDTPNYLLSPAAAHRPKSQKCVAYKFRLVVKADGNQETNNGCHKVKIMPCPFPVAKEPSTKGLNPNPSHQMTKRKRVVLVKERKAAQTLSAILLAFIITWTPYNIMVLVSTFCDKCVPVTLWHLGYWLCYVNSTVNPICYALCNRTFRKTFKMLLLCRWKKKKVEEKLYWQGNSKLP
The data set is described as follows: M5-receptor functional agonist assay. It counts as cell-based.

The next data set concerns the target T2, rat M1-receptor (Rattus norvegicus, UniProt P08482).
T2 construct: expressed in transfected cells; host or cells: not described
The data set is described as follows: Recombinant rat M1-receptor functional assay. Type of data set: cell-based.

Another data set deals with T3, M2-receptor (Homo sapiens, UniProt P08172).
T3 sequence (P08172 1-466): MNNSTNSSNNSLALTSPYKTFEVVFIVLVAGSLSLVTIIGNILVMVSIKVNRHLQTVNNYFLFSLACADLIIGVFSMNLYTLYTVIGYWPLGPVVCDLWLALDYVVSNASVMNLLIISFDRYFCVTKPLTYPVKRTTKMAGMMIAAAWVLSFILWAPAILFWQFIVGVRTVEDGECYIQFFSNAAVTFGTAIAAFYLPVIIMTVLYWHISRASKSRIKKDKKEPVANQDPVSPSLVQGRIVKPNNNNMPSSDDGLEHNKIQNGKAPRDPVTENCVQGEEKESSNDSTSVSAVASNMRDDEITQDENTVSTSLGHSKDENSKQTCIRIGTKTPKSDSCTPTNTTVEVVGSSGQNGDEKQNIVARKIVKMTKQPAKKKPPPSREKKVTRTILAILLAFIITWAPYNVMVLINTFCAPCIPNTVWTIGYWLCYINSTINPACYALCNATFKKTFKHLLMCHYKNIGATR
The data set is described as follows: M2-receptor functional agonist assay. It counts as cell-based. Set-up: expressed in transfected cells. On the procedure:
Functional assays were performed using the Alphascreen Surefire phopho-ERK1/2 assay. […] Once adhered, cells were serum starved overnight. Agonist stimulation was performed by the addition of […] agonist to the cells for a pre-optimized 5 min period (37°C). Media was removed and 50 μl of lysis buffer added. After 15 min a 4 μl sample was transferred to a 384-well plate and 7 μl of detection mixture added.

For data set [2], the system named is Tg37 hemizygous mice inoculated with RML prions. Type of data set: in vivo, mouse. The following applies: prion mice 9 w.p.i., 30 mg/kg i.p., 24 h after training.
A further data set concerns the target T4, human M1 receptor (Homo sapiens, UniProt P11229).
T4 construct: expressed in transfected cells
T4 sequence (P11229 1-460): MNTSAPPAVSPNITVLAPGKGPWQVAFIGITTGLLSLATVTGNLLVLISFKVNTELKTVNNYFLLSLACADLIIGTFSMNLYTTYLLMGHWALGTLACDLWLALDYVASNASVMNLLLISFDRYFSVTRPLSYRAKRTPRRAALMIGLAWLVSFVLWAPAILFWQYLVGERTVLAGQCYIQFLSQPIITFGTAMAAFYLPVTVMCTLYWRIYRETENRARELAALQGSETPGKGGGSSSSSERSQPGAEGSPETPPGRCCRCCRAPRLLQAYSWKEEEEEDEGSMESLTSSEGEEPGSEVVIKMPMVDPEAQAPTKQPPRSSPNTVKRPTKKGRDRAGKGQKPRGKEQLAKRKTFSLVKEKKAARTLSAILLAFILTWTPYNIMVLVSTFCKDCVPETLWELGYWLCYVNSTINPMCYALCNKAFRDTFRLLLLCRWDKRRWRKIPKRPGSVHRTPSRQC
The experiment in a line: Interaction with ACh in IP1 assay after phenoxybenzamine receptor depletion (Schild). It counts as cell-based.

The next data set deals with CA1 pyramidal cells. The data set is described as follows: Electrophysiological recordings in rat hippocampal slices. It counts as cell-based. As to conditions: read-out: Spontaneous firing rate of CA1 pyramidal cells EC50.
In data set [3] the test system is Wistar rats. The experiment in a line: Scopolamine-induced amnesia in passive avoidance. Type of data set: in vivo, rat. As to the method: Male adult Wistar rats (Harlan, UK; approximately 11 weeks of age) were acclimatised to the experimental rooms for three days (study days 1-3) and handled for a further two days (study days 4 and 5) prior to the experiment.
Donepezil (0.01 and 0.1 mg/kg) was administered via intraperitoneal injection (in saline) 60 min prior to training. Rats were trained in a single-trial, step-through, light-dark passive avoidance paradigm. The training apparatus consisted of a chamber 300 mm in length, 260 mm wide, and 270 mm in height. The front and top were transparent, allowing the experimenter to observe the behavior of the animal inside the apparatus. The chamber was divided into two compartments, separated by a central shutter that contained a small opening (50 mm wide and 75 mm high) set close to the front of the chamber. The smaller of the compartments measured 90 mm in width and contained a low-light (~200 lux) illumination source. The larger compartment measured 210 mm in width and was not illuminated. The floor of this dark compartment consisted of a grid of 16 horizontal stainless-steel bars that were 5 mm in diameter and spaced 12.5 mm apart. A current generator supplied 0.75 mA to the grid floor, which was scrambled once every 0.5 s across the 16 bars.
Animals were placed facing the rear of the light compartment of the apparatus, immediately after which, spontaneous behavior was assessed. The timer was started once the animal completely turned to face the front of the chamber. Latency to enter the dark chamber was recorded, and having completely entered the dark compartment foot shock was administered to the animal, which immediately returned to the light compartment. Animals were then returned to their home cages. Between each training session, both compartments of the chamber were cleaned to remove any confounding olfactory cues. Vehicle (saline) or scopolamine (1 mg/kg) was administered to rats 6 hours after training. Recall of the inhibitory stimulus was evaluated 24 hour post-training on study day 7, by returning the animal into the light chamber and recording their latency to enter the dark chamber, a criterion time of 600 s was employed. Observation of the animals was made by overhead video camera linked to a monitor behind a screened area. Animal treatment was blinded to the observer.

The test system of another data set is dogs. The experiment in a line: GLP cardiovascular safety pharmacology telemetry in dogs.

By EC50 is commonly meant the concentration giving half of the maximal effect.

T2 sequence (P08482 whole entry): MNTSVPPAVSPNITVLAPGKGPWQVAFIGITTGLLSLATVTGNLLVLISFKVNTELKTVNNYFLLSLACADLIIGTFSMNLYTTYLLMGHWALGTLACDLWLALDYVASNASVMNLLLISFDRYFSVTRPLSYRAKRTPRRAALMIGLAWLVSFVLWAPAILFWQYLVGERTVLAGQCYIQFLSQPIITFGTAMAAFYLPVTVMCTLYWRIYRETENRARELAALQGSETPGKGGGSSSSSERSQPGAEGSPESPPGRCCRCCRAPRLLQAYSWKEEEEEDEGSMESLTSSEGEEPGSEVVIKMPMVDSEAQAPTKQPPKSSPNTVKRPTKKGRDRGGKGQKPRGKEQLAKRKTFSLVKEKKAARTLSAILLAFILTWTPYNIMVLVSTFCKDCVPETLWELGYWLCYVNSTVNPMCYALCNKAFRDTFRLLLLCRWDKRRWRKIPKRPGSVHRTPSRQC

For the compound `CCOC(=O)N1CCC[C@H](N2CCC(C(=O)NC3(C)CCC3)CC2)CC1` [HTL9936, ethyl (S)-4-(4-((1-methylcyclobutyl)carbamoyl)piperidin-1-yl)azepane-1-carboxylate], in the data set on Wistar rats [1] (rat novel object recognition, p.o.), the Effective dose was 10 mg/kg. Moreover, the “Effect compared with positive controls donepezil and galantamine” value in the data set on Wistar rats [1] (rat, 10 mg/kg p.o.) was “significantly better than the positive controls”. On human M5-receptor, the M5-receptor agonism entry was “no detectable agonism”. In addition, the “Agonist behaviour at the rat receptor” value at rat M1-receptor was “partial agonist”. The EC50 on M2-receptor is greater than 20 µM; with CA1 pyramidal cells, 1.6 µM. Moreover, the M2-receptor agonist activity result at M2-receptor is “no detectable agonism”. In data set [2], the “Immobility level on re-exposure to training environment” value is ~ 34%. Further, the Kb on human M1 receptor is 6.31 µM. In the data set on Wistar rats [3] (rat passive avoidance), the “Maximal response compared with donepezil 0.1 mg/kg” value is recorded as “equivalent to that obtained using the clinically approved acetylcholinesterase inhibitor donepezil”. The Response alone result with Wistar rats [3] (rat passive avoidance, HTL9936 3 mg/kg) is “no response alone”. Moreover, in the data set with Wistar rats [3] (rat, 3, 10 or 30 mg/kg p.o., scopolamine 1 mg/kg i.p.), the “Effect on scopolamine-induced amnesia” value is reported as “reversed in a dose-dependent manner”. Further, in the data set on dogs (dogs), the “Time for hemodynamic changes to return to control levels after end of i.v. infusion” value is reported as no more than 30 min. For the same compound, the “Blood pressure and heart rate” value in the data set with dogs (telemetered dogs, i.v. infusion) is “dose-dependent profile of HTL9936 effects on blood pressure, but not heart rate”.

For the origin of these results see paper PMC7616177, “From structure to clinic: Design of a muscarinic M1 receptor agonist with the potential to treat Alzheimer’s disease” (Cell, 2021).
